The target of one assay is T1, hM4 receptors (Homo sapiens, UniProt P08173).
T1 construct: expressed in transfected cells; host or cells: CHO cells
T1 sequence (P08173 1-479): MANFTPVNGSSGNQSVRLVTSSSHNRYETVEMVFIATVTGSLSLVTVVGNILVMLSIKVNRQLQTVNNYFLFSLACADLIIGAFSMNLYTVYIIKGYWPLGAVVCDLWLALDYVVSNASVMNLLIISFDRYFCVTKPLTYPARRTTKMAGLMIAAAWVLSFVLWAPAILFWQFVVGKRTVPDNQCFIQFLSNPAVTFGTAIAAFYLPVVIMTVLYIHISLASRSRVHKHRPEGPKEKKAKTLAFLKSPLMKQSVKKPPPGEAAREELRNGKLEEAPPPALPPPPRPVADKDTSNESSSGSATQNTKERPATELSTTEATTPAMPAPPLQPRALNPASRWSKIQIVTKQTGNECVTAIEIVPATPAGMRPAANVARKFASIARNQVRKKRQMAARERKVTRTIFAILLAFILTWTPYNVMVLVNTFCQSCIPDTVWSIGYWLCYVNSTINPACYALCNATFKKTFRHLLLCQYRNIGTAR
The experiment in a line: Human M4 PAM pERK assay. Format: cell-based. Conditions: CHO cells expressing hM4; EC20 of acetylcholine (10 nM final); TR-FRET. For orientation: Time-resolved FRET reads energy transfer from a long-lived donor to a nearby acceptor.

The test system of assay [1] is Sprague Dawley rats pre-treated with amphetamine. Put plainly: Amphetamine-evoked hyperlocomotion in rats. The assay is classed as in vivo, rat. As to conditions: male Sprague Dawley rats; 0.5 mg/kg amphetamine s.c.; open field, distance traveled. The method, then: Animals: Adult male, Sprague Dawley rats (Envigo, Indianapolis, IN, USA) were housed in a colony maintained at 23° C. with 12 hour light/dark cycles (lights on at 0600 hour). All animals weighed 290-330 g at the beginning of the study and were equally divided into 5 groups (n=8 per group) and received one of the treatment conditions listed below. Animal protocols were approved by an Animal Care and Use Committee.
Behavioral Procedures: Studies were conducted in MedAssociates open field chambers (27.3 cm×27.3 cm×20.3 cm, MedAssociates, St. Albans, VT) in which movement was automatically tracked and recorded by 16 beam arrays. Administration pretreatment of the test article was determined to coincide with Tmax at the time of the amphetamine-evoked session with optimal route of administration. All groups were subcutaneously treated with 0.5 mg/kg amphetamine (AMP). […] Locomotor data (distance traveled) was recorded as 5-minute bins throughout the 90-minute session. […]
Statistical Analysis: Spontaneous locomotion (prior to AMP administration) was calculated as the total distance traveled during the first 30 minutes of the experimental session. AMP-evoked responses were calculated as the total distance traveled during the last 60 minutes of the experimental session which commenced immediately after AMP administration. Locomotor data were analyzed by a one-way ANOVA. […]

The structures appear in SMILES notation. pEC50: −log10 of the molar value. Some results are limits rather than exact numbers.

In general, pEC50 refers to the EC50 on a negative log10 scale, so that one unit is a factor of ten. Consider `COc1nc(C)nc2c1C(C)N(C(=O)CC1CN(c3ccnc(C(F)(F)F)c3)C1)C2` (single isomer, unassigned) [Compound I-52, 1-(4-Methoxy-2,5-dimethyl-5,7-dihydro-6H-pyrrolo[3,4-d]pyrimidin-6-yl)-2-(1-(2-(trifluoromethyl)pyridin-4-yl)azetidin-3-yl)ethan-1-one], for which, at hM4 receptors, the pEC50 was 6.30 to 7.00. The “Dose Amount of Compound at which rats displayed a reduction in amphetamine-evoked hyperlocomotion activity” value in assay [1] is 32 mg/kg.

`COc1nc(C#N)nc2c1C(C)N(C(=O)CC1CN(c3ccnc(C(F)(F)F)c3)C1)C2` (single isomer, unassigned) [Compound I-6, 4-Methoxy-5-methyl-6-(2-(1-(2-(trifluoromethyl)pyridin-4-yl)azetidin-3-yl)acetyl)-6,7-dihydro-5H-pyrrolo[3,4-d]pyrimidine-2-carbonitrile] gave a pEC50 at hM4 receptors not below 7.00. Also, the “Dose Amount of Compound at which rats displayed a reduction in amphetamine-evoked hyperlocomotion activity” value in assay [1] is given as more than 32 mg/kg.

The values above are taken from patent US20260209234A1, “SUBSTITUTED DIHYDROPYRROLO[3,4-D]PYRIMIDINE COMPOUNDS AND THEIR USE IN TREATING MEDICAL CONDITIONS” (Karuna Therapeutics, Inc., priority 2022, published 2026).
